Laboratory results from PMC2902711 (Toxicon : official journal of the International Society on …, 2010).
Where two headings read alike, the source gives them in different places.

What was measured:
RTA = details: read-out: IC50 for RTA; cited from earlier work
[1] = biological target: Shiga toxin type 1 subunit A (StxA1) (Bacteriophage H30, UniProt P10149); assay: biochemical; type: biochemical, Escherichia coli
Vero cells = details: for concentrations at which the compound was itself cytotoxic: African green monkey

Sequence of Shiga toxin type 1 subunit A (StxA1) (P10149 23-273 limits assumed): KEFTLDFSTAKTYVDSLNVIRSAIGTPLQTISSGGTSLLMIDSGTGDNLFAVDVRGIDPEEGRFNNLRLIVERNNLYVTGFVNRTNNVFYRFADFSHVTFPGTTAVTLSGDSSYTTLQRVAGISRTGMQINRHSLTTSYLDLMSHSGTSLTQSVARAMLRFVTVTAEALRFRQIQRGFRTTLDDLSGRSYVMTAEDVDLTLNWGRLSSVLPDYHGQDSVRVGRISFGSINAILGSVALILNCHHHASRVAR

Row | Structure (SMILES) | IC50 (RTA) [µM] | concentrations at which the compound was itself cytotoxic (Vero cells) | further results
1 | Cc1nc2c(=O)[nH]c(N)nc2o1 [8-methyl-9-oxaguanine] | ~400 | – | –
2 | Cc1ccc(/C=C/C(=O)NC2CCCc3ccccc32)o1 (stereo not drawn) [Compound 1, (E)-3-(5-methylfuran-2-yl)-N-(1,2,3,4-tetrahydronaphthalen-1-yl)prop-2-enamide] | – | – | IC50 [1]: ~700 µM; cytotoxicity of the compound itself (Vero cells): did not exhibit significant cytotoxicity
3 | CC(C)Nc1nc(C#N)nc(NC(C)C)n1 [Compound 2, 4,6-bis(propan-2-ylamino)-1,3,5-triazine-2-carbonitrile] | – | – | cytotoxicity of the compound itself (Vero cells): moderately cytotoxic
4 | COC(=O)C(C)N1C(=O)S/C(=C/c2ccc(N3CCCCCC3)o2)C1=O (stereo not drawn) [Compound 3, methyl 2-[(5E)-5-[[5-(azepan-1-yl)furan-2-yl]methylidene]-2,4-dioxo-1,3-thiazolidin-3-yl]propanoate] | – | less than 20 μM | –
5 | CS(=O)(=O)c1nc2ccccc2n1Cc1cccc2ccccc12 [Compound 4, 2-methylsulfonyl-1-(naphthalen-1-ylmethyl)benzimidazole] | – | > 30 µM | –
6 | O=C(OCc1ccc(F)cc1)c1cc(-c2ccco2)nc2ccccc12 [Compound 8, 4-fluorophenyl methyl 2-(furan-2-yl)quinoline-4-carboxylate] | – | – | IC50 ([1]; read-out: StxA1 IC50): 40 µM; IC50 ([1]; read-out: apparent IC50 for StxA1): ~40 µM
7 | O=C(CSc1nnc[nH]1)N(Cc1ccc(F)cc1)C1CCCCC1 [Compound C17-1, N-cyclohexyl-N-[(4-fluorophenyl)methyl]-2-(4H-1,2,4-triazol-3-ylsulfanyl)acetamide] | – | > 100 µM | IC50 [1]: 500 µM
8 | Nc1cc(O)c(N)c(O)n1 [DDP, 2,5-diamino-4-6-dihydroxypyridine] | 2200 | – | –
9 | Nc1nc2ncc(CNc3ccc(C(=O)O)cc3)nc2c(=O)[nH]1 [pteroic acid (PTA), pteroic acid] | ~600 | – | –
